In ChEMBL document CHEMBL1141439, “An antiproliferative bis-prenylated quinone from the New Zealand brown alga Perithalia capillaris” (J Nat Prod, 2007):

What was measured:
Neutrophil = assay: Inhibition of superoxide production in human neutrophils; format: functional, cell-based
HL-60 = assay: Antiproliferative activity against human HL60 cells; format: functional, cell-based

SMILES	IC50 (Neutrophil) [µM]	IC50 (HL-60) [µM]
C=CC(C)(C)c1cc2c(cc1O)C=CC(C)(C)O2	238	5.6
C=CC(C)(C)c1ccc(O)c(CC=C(C)C)c1	29	2.7
C=CC(C)(C)C1=CC(=O)C(CC=C(C)C)=CC1=O	2.1	0.34
O=C1C2=C(C=CC(C(=O)O)N2)C(=O)C2=C1NCCS2(=O)=O (stereo not drawn)	1.5	73
